# Source: ChEMBL document CHEMBL6078642, “Design, Synthesis, and Activity Evaluation of BRD4 PROTAC Based on Alkenyl Oxindole-DCAF11 Pair” (J Med Chem, 2024)
# pIC50: −log10 of the molar value. The source made the active and inactive calls. The rule behind the calls is not given here.
# What was measured:
# DCAF11-BRD4 [1] = molecular target: T1, DCAF11-BRD4 (Homo sapiens, UniProt O60885+Q8TEB1); experiment: PROTAC activity at DCAF11/BRD4 BD1 domain (unknown origin) expressed in HEK293T cells assessed as induction of BRD4 degradation at 1 uM incubated for 12 hrs by Dual fluorescence reporter cell high content imaging analysis relative to control; format: cell-based
# T1 sequence (Q8TEB1 whole entry, looked up, other chains not shown, the tested form may be a part): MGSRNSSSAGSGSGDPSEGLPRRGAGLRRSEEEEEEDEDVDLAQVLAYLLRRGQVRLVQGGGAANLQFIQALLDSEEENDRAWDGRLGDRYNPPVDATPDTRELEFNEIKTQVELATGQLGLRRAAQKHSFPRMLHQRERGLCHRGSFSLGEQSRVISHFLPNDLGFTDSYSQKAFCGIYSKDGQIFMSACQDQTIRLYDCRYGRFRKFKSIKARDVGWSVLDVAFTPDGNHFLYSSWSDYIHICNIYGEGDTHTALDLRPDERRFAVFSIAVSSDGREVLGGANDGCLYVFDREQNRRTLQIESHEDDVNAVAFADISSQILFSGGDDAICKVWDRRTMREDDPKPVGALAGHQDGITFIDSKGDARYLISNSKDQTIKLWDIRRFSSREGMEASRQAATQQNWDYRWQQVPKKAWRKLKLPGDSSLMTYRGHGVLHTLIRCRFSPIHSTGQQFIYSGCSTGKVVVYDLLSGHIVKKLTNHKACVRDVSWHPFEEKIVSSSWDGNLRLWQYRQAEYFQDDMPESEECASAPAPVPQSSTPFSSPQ
# HEK293T [2] = experiment: Induction of BRD4 BD1 domain (unknown origin) degradation expressed in DCAF11 knockout HEK293T cells assessed as decrease in red fluorescence at 1 uM incubated for 12 hrs by dual fluorescence reporter cell based high content imaging analysis; settings: Homo sapiens
# DCAF11-BRD4 [3] = molecular target: T1, DCAF11-BRD4; experiment: PROTAC activity at DCAF11/BRD4 in human MDA-MB-231 cells assessed as induction of BRD4 degradation at 1 uM incubated for 12 hrs in presence of JQ1 by immunoblot analysis; format: cell-based
# DCAF11-BRD4 [4] = molecular target: T1, DCAF11-BRD4; experiment: PROTAC activity at DCAF11/BRD4 BD1 domain (unknown origin) expressed in HEK293T cells assessed as induction of BRD4 degradation at 10 to 100 nM incubated for 12 hrs by Dual fluorescence reporter cell high content imaging analysis; format: cell-based; settings: dose 10-100 nM
# DCAF11-BRD4 [5] = molecular target: T1, DCAF11-BRD4; experiment: PROTAC activity at DCAF11/BRD4 in human MDA-MB-231 cells assessed as induction of BRD4 degradation at 10 to 100 nM incubated for 1 hrs by immunoblot analysis; format: cell-based; settings: dose 10-100 nM
# DCAF11-BRD4 [6] = molecular target: T1, DCAF11-BRD4; experiment: PROTAC activity at DCAF11/BRD4 in human MDA-MB-231 cells assessed as induction of BRD4 degradation at 1 uM measured within 1 hrs by immunoblot analysis; format: cell-based
# DCAF11-BRD4 [7] = molecular target: T1, DCAF11-BRD4; experiment: PROTAC activity at DCAF11/BRD4 in human MDA-MB-231 cells assessed as induction of BRD4 degradation incubated for 12 hrs by immunoblot analysis; format: cell-based; settings: dose 0.1-1000 nM
# DCAF11-BRD4 [8] = molecular target: T1, DCAF11-BRD4; experiment: PROTAC activity at DCAF11/BRD4 in human MDA-MB-231 cells assessed as induction of BRD4 degradation at 10 nM incubated for 12 hrs by immunoblot analysis; format: cell-based
# DCAF11-BRD4 [9] = molecular target: T1, DCAF11-BRD4; experiment: PROTAC activity at DCAF11/BRD4 in human MDA-MB-231 cells assessed as induction of BRD4 degradation by immunoblot analysis; format: cell-based
# MDA-MB-231 [10] = experiment: Effect on BRD4 mRNA gene expression in human MDA-MB-231 cells at 0.1 to 1 microM incubated for 12 hrs by qPCR analysis; format: functional, cell-based; settings: dose 0.1-1 µM
# MDA-MB-231 [11] = experiment: Downregulation of BRD4 protein expression in human MDA-MB-231 cells at 1 uM incubated for 6 hrs by proteomic analysis; format: functional, cell-based
# DCAF11-BRD4 [12] = molecular target: T1, DCAF11-BRD4; experiment: PROTAC activity at DCAF11/BRD4 in human MDA-MB-231 cells assessed as induction of BRD4 degradation at 1 uM preincubated with MG132 for 1 hrs and measured after compound addition by immunoblot analysis; format: cell-based
# DCAF11-BRD4 [13] = molecular target: T1, DCAF11-BRD4; experiment: PROTAC activity at DCAF11/BRD4 in human MDA-MB-231 cells assessed as induction of BRD4 degradation at 1 uM preincubated with bortezomib for 1 hrs and measured after compound addition by immunoblot analysis; format: cell-based
# DCAF11-BRD4 [14] = molecular target: T1, DCAF11-BRD4; experiment: PROTAC activity at DCAF11/BRD4 in human MDA-MB-231 cells assessed as induction of BRD4 degradation at 1 uM preincubated with PYR41 for 1 hrs and measured after compound addition by immunoblot analysis; format: cell-based
# DCAF11-BRD4 [15] = molecular target: T1, DCAF11-BRD4; experiment: PROTAC activity at DCAF11/BRD4 in human MDA-MB-231 cells assessed as induction of BRD4 degradation at 1 uM preincubated with MLN4924 for 1 hrs and measured after compound addition by immunoblot analysis; format: cell-based
# DCAF11-BRD4 [16] = molecular target: T1, DCAF11-BRD4; experiment: PROTAC activity at DCAF11/BRD4 in human MDA-MB-231 cells assessed as induction of BRD4 degradation at 1 uM preincubated with chloroquine for 1 hrs and measured after compound addition by immunoblot analysis; format: cell-based
# DCAF11-BRD4 [17] = molecular target: T1, DCAF11-BRD4; experiment: PROTAC activity at DCAF11/BRD4 in human MDA-MB-231 cells assessed as induction of BRD4 degradation at 1 uM preincubated with bafilomycin A1 for 1 hrs and measured after compound addition by immunoblot analysis; format: cell-based
# HEK293T [18] = experiment: Induction of BRD4 BD1 domain (unknown origin) degradation expressed in DCAF11 knockout HEK293T cells at 1 uM incubated for 12 hrs by immunoblot analysis; format: cell-based; settings: Homo sapiens
# DCAF11-BRD4 [19] = molecular target: T1, DCAF11-BRD4; experiment: PROTAC activity at DCAF11/BRD4 in human MDA-MB-231 cells assessed as induction of BRD4 degradation at 1 uM incubated for 12 hrs in presence of tert-butyl 2-(4-methyl-2-((2-oxo-6-(trifluoromethyl)indolin-3-ylidene)methyl)phenoxy)acetate by immunoblot analysis; format: cell-based
# DCAF11-BRD4 [20] = molecular target: T1, DCAF11-BRD4; experiment: Binding affinity to HA-tagged DCAF11/Flag-tagged BRD4 BD1 domain (unknown origin) expressed in HEK293T cells by co-immunoprecipitation analysis; format: cell-based
# DCAF11-BRD4 [21] = molecular target: T1, DCAF11-BRD4; experiment: Binding affinity to DCAF11/BRD4 BD1 domain in HEK293T cells by co-immunoprecipitation analysis; format: cell-based
# MCF7 = experiment: Antiproliferative activity against human MCF7 cells assessed as reduction in cell viability incubated for 2 days by CCK8 assay; format: functional, cell-based; settings: MCF7, 48 h
# T47D = experiment: Antiproliferative activity against human T47D cells assessed as reduction in cell viability incubated for 2 days by CCK8 assay; format: functional, cell-based; settings: 48 h
# MDA-MB-231 [22] = experiment: Antiproliferative activity against human MDA-MB-231 cells assessed as reduction in cell viability incubated for 2 days by CCK8 assay; format: functional, cell-based; settings: MDA-MB-231, 48 h
# MDA-MB-157 = experiment: Antiproliferative activity against human MDA-MB-157 cells assessed as reduction in cell viability incubated for 2 days by CCK8 assay; format: functional, cell-based; settings: MDA-MB-157, 48 h
# MDA-MB-468 = experiment: Antiproliferative activity against human MDA-MB-468 cells assessed as reduction in cell viability incubated for 2 days by CCK8 assay; format: functional, cell-based; settings: MDA-MB-468, 48 h
# HCC1937 = experiment: Antiproliferative activity against human HCC1937 cells assessed as reduction in cell viability incubated for 2 days by CCK8 assay; format: functional, cell-based; settings: HCC1937, 48 h
# BT-549 = experiment: Antiproliferative activity against human BT-549 cells assessed as reduction in cell viability incubated for 2 days by CCK8 assay; format: functional, cell-based; settings: BT-549, 48 h
# DCAF11-BRD4 [23] = molecular target: T1, DCAF11-BRD4; experiment: PROTAC activity at DCAF11/BRD4 in human T47D cells assessed as induction of BRD4 degradation at 1 uM incubated for 12 hrs by immunoblot analysis; format: cell-based
# DCAF11-BRD4 [24] = molecular target: T1, DCAF11-BRD4; experiment: PROTAC activity at DCAF11/BRD4 in human BT-549 cells assessed as induction of BRD4 degradation at 1 uM incubated for 12 hrs by immunoblot analysis; format: cell-based
# DCAF11-BRD4 [25] = molecular target: T1, DCAF11-BRD4; experiment: PROTAC activity at DCAF11/BRD4 in human MCF7 cells assessed as induction of BRD4 degradation at 1 uM incubated for 12 hrs by immunoblot analysis; format: cell-based
# DCAF11-BRD4 [26] = molecular target: T1, DCAF11-BRD4; experiment: PROTAC activity at DCAF11/BRD4 in human MDA-MB-468 cells assessed as induction of BRD4 degradation at 1 uM incubated for 12 hrs by immunoblot analysis; format: cell-based
# DCAF11-BRD4 [27] = molecular target: T1, DCAF11-BRD4; experiment: PROTAC activity at DCAF11/BRD4 in human MDA-MB-157 cells assessed as induction of BRD4 degradation at 1 uM incubated for 12 hrs by immunoblot analysis; format: cell-based
# DCAF11-BRD4 [28] = molecular target: T1, DCAF11-BRD4; experiment: PROTAC activity at DCAF11/BRD4 in human HCC1937 cells assessed as induction of BRD4 degradation at 1 uM incubated for 12 hrs by immunoblot analysis; format: cell-based
# DCAF11-BRD4 [29] = molecular target: T1, DCAF11-BRD4; experiment: PROTAC activity at DCAF11/BRD4 in human MDA-MB-231 cells assessed as induction of BRD4 degradation at 1 to 100 nM incubated for 1 hrs by Western blot analysis; format: cell-based; settings: dose 1-100 nM
# MDA-MB-231 [30] = experiment: Inhibition of cell migration in human MDA-MB-231 cells at 0.1 to 1 uM measured after 48 hrs by crystal violet staining based transwell migration assay; format: functional; settings: dose 0.1-1 µM
# MDA-MB-231 [31] = experiment: Induction of apoptosis in human MDA-MB-231 cells assessed as increase in cleaved PARP level by immunoblot analysis; format: functional, cell-based
# MDA-MB-231 [32] = experiment: Induction of apoptosis in human MDA-MB-231 cells assessed as increase in cleaved caspase-7 level by immunoblot analysis; format: functional, cell-based
smiles,measurement,setting,value
Cc1ccc(OCC(=O)NCCCOCCOCCOCCCNC(=O)C[C@@H]2N=C(c3ccc(Cl)cc3)c3c(sc(C)c3C)-n3c(C)nnc32)c(/C=C2\C(=O)Nc3ccc(Br)cc32)c1 (stereo in doubt),Activity,DCAF11-BRD4 [1],> 35%
same,Activity,HEK293T [2],inactive
Cc1ccc(OCC(=O)NCCCOCCOCCOCCCNC(=O)C[C@@H]2N=C(c3ccc(Cl)cc3)c3c(sc(C)c3C)-n3c(C)nnc32)c(/C=C2\C(=O)Nc3cc(C(F)(F)F)ccc32)c1 (stereo in doubt),Activity,DCAF11-BRD4 [3],inactive
same,Activity,DCAF11-BRD4 [1],> 35%
same,Activity,DCAF11-BRD4 [4],Active
same,Activity,DCAF11-BRD4 [5],Active
same,Activity,DCAF11-BRD4 [6],Active
same,Activity,DCAF11-BRD4 [7],Dose-dependent-effect
same,Activity,DCAF11-BRD4 [8],Active
same,DC50,DCAF11-BRD4 [9],0.00736 µM
same,Activity,MDA-MB-231 [10],inactive
same,Activity,MDA-MB-231 [11],Active
same,Activity,DCAF11-BRD4 [12],inactive
same,Activity,DCAF11-BRD4 [13],inactive
same,Activity,DCAF11-BRD4 [14],inactive
same,Activity,DCAF11-BRD4 [15],inactive
same,Activity,DCAF11-BRD4 [16],Active
same,Activity,DCAF11-BRD4 [17],Active
same,Activity,HEK293T [2],inactive
same,Activity,HEK293T [18],inactive
same,Activity,DCAF11-BRD4 [19],inactive
same,Activity,DCAF11-BRD4 [20],Active
same,Activity,DCAF11-BRD4 [21],Active
same,pIC50,MCF7,5.55
same,pIC50,T47D,6.20
same,pIC50,MDA-MB-231 [22],7.15
same,pIC50,MDA-MB-157,7.00
same,pIC50,MDA-MB-468,7.70
same,pIC50,HCC1937,6.74
same,pIC50,BT-549,5.20
same,Activity,DCAF11-BRD4 [23],Active
same,Activity,DCAF11-BRD4 [24],Active
same,Activity,DCAF11-BRD4 [25],Active
same,Activity,DCAF11-BRD4 [26],Active
same,Activity,DCAF11-BRD4 [27],Active
same,Activity,DCAF11-BRD4 [28],Active
same,Activity,DCAF11-BRD4 [29],Active; Degradation Capability Comparable To Dbet6 And Mz1
same,inhibition,MDA-MB-231 [30],Active
same,Activity,MDA-MB-231 [31],Active
same,Activity,MDA-MB-231 [32],Active
Cc1sc2c(c1C)C(c1ccc(Cl)cc1)=N[C@@H](CC(=O)NCCCOCCOCCOCCCNC(=O)COc1ccc(/C=C3/C(=O)Nc4cc(C(F)(F)F)ccc43)nc1)c1nnc(C)n1-2 (stereo in doubt),Activity,DCAF11-BRD4 [1],> 35%
same,Activity,DCAF11-BRD4 [5],Active
same,Activity,HEK293T [2],inactive
Cc1sc2c(c1C)C(c1ccc(Cl)cc1)=N[C@@H](CC(=O)NCCCOCCOCCOCCCNC(=O)COc1ccc(/C=C3/C(=O)Nc4ccc(Cl)cc43)cc1)c1nnc(C)n1-2 (stereo in doubt),Activity,DCAF11-BRD4 [1],> 35%
Cc1ccc(OCC(=O)NCCCOCCOCCOCCCNC(=O)C[C@@H]2N=C(c3ccc(Cl)cc3)c3c(sc(C)c3C)-n3c(C)nnc32)c(/C=C2\C(=O)Nc3ccc(Cl)cc32)c1 (stereo in doubt),Activity,DCAF11-BRD4 [1],> 35%
same,Activity,DCAF11-BRD4 [5],Active
same,Activity,HEK293T [2],inactive
Cc1sc2c(c1C)C(c1ccc(Cl)cc1)=N[C@@H](CC(=O)NCCCOc1cccc(/C=C3/C(=O)Nc4cc(C(F)(F)F)ccc43)c1)c1nnc(C)n1-2,Activity,DCAF11-BRD4 [1],> 35%
same,Activity,HEK293T [2],inactive
Cc1sc2c(c1C)C(c1ccc(Cl)cc1)=N[C@@H](CC(=O)NCCCOCCOCCOCCCNC(=O)COc1ccc(Br)cc1/C=C1\C(=O)Nc3cc(C(F)(F)F)ccc31)c1nnc(C)n1-2,Activity,HEK293T [2],inactive
Cc1sc2c(c1C)C(c1ccc(Cl)cc1)=N[C@@H](CC(=O)NCCCOc1c(Br)cc(Br)c(/C=C3/C(=O)Nc4cc(C(F)(F)F)ccc43)c1Br)c1nnc(C)n1-2,Activity,HEK293T [2],inactive
